Assays:
[1] = Electrophoresis of 99mTc complexes (charge); type: physicochemical
Text: After labelling, and if required, the resultant ^99m Tc chelate complexes can be purified by passing through a C-18 Sep Pak column.

[2] = Biodistribution of 99mTc labelled complexes in rats (Tc brain bioassay, Example 64, Table I); type: in vivo, Female Sprague-Dawley rats; settings: rat, i.v. tail vein
Experimental: Distribution of the ^99m Tc labelled compounds was evaluated in rats. Female Sprague-Dawley rats weighing 140 to 220 g (average 170 g) were anaesthetised with sodium pentobarbital and were injected in a tail vein with 0.05 to 10mCi of the ^99m Tc labelled complex in a volume of 0.2 to 0.5 ml. At least two rats were injected for each time point.
The animals were sacrificed at 5 and 30 minutes post injection and selected organs were removed; the tails were discarded to avoid interference from the injection site. The radioactivity in each organ was measured at a standard geometry with a […] sodium iodide scintillation counter adjusted for the 140 KeV emission of ^99m Tc. The organs were also weighed to one hundredth of a gram and the activity was calculated as a percent of administered dose per gram. The important determinations are the amount of activity in the brain and the brain:blood ratio.

[3] = technetium complex; cited from earlier work
[4] = technetium complex, monkey; cited from earlier work
[5] = 0.1M NaH2PO4, pH 6.8, 250 volts, 25 min
[6] = 0.05M NaH2PO4, pH 4.5, 300 volts, 30 min
[7] = 0.1M NaH2PO4, pH 6.8, 200 volts, 30 min

SMILES	Brain % dose ([2]; 5 min post injection) [% dose]	Brain:blood ([2]; 5 min post injection)	Heart % dose ([2]; 5 min post injection) [% dose]	Heart:blood ([2]; 5 min post injection)	Brain % dose ([2]; 30 min post injection) [% dose]	Brain:blood ([2]; 30 min post injection)	Heart % dose ([2]; 30 min post injection) [% dose]	Heart:blood ([2]; 30 min post injection)	further results
CCC[SH]1C(C)(C)C(=O)[N]2CC[N]3c4ccccc4[S][Tc]231=[O] (stereo not shown) [Example T713, ^99m Tc complex of N[2-(((2-methyl-2-propylthio)propionyl)amino)ethyl]-2-amino-thiophenol]	1.55	4.34	0.59	3.68	0.46	1.83	0.19	1.84	Electrophoresis (charge) [1, 5]: neutral
CC1(C)C(=O)[N]2CC[N]3c4ccccc4[S][Tc]23(=[O])[SH]1CCC#N (stereo not shown) [Example T731, ^99m Tc complex of N[2-(((2-methyl-2-(2-cyanoethylthio))propionyl)amino)ethyl]-2-(4-methoxybenzylthio)aniline]	1.49	0.42	1.01	0.68	0.60	0.21	0.58	0.42	Electrophoresis (charge) [1, 6]: neutral
CC(C)(S)CNCc1ccccc1NCC(C)(C)S [U-BAT]									brain uptake / crossing of blood-brain barrier [3]: exhibit brain uptake; retention of brain activity [3]: no retention
COC(=O)C[SH]1C(C)(C)C(=O)[N]2CC[N]3c4ccccc4[S][Tc]231=[O] (stereo not shown) [Example T727, ^99m Tc complex of N[2-(((2-methyl-2-(methoxycarbonylmethylenethio))propionyl)amino)ethyl]-2-(4-methoxybenzylthio)aniline]	0.09	0.09	0.45	1.26	0.07	0.06	0.18	0.42	Electrophoresis (charge) ([1]; 0.05M NaH2PO4, pH 4.5, 300 volts, 35 min): neutral
C#CC[SH]1C(C)(C)C(=O)[N]2CC[N]3c4ccccc4[S][Tc]231=[O] (stereo not shown) [Example T722, ^99m Tc complex of N[2-(((2-methyl-2-(2-propynylthio))propionyl)amino)ethyl]-2-(4-methoxybenzylthio)aniline]	1.58	0.57	0.74	0.67	0.68	0.31	0.48	0.52	
CC1(C)C(=O)[N]2CC[N]3c4ccccc4[S][Tc]23(=[O])[SH]1CCO (stereo not shown) [Example T726, ^99m Tc complex of N[2-(((2-methyl-2-(2-hydroxyethylthio))propionyl)amino)ethyl]-2-(4-methoxybenzylthio) aniline]	1.11	1.82	0.73	3.22	0.32	0.93	0.28	2.08	Electrophoresis (charge) [1, 7]: neutral
CCCC[SH]1C(C)(C)C(=O)[N]2CC[N]3c4ccccc4[S][Tc]231=[O] (stereo not shown) [Example T714, ^99m Tc complex of N[2-(((2-methyl-2-butylthio)propionyl)amino)ethyl]-2-amino-thiophenol]	1.43	3.11	0.82	3.67	0.50	1.66	0.27	1.79	
CC1(C)C(=O)[N]2CC[N]3c4ccccc4[S][Tc]23(=[O])[SH]1CCCl (stereo not shown) [Example T730, ^99m Tc complex of N[2-(((2-methyl-2-(2-chloroethylthio))propionyl)amino)ethyl]-2-(4-methoxybenzylthio)aniline]	2.45	6.1	0.71	3.97	0.73	1.8	0.29	1.53	Electrophoresis (charge) [1, 6]: neutral
C[SH]1c2ccccc2[N]2CC(=O)[N]3CC(C)(C)[S][Tc]321=[O] (stereo not shown) [Example T729, ^99m Tc complex of N[2-oxo-2(N^1 ((2-methyl-2-mercapto)propyl)amino)ethyl]-2-methylthioaniline]	0.87	0.19	0.70	0.34	0.21	0.08	0.28	0.36	Electrophoresis (charge) [1, 6]: neutral
CC(C)(S)CNCCNCC(C)(C)S [BAT]									brain uptake / crossing of blood-brain barrier [3]: can cross the blood-brain barrier (BBB); retention of brain activity [3]: fails to show retention
C=CC[SH]1C(C)(C)C(=O)[N]2CC[N]3c4ccccc4[S][Tc]231=[O] (stereo not shown) [Example T719, ^99m Tc complex of N[2-(((2-methyl-2-allylthio)propionyl)amino)ethyl]-2-(4-methoxybenzylthio)aniline]	1.86		0.78		0.48		0.40		Brain:blood ([2]; 5 min post injection, 5 min): 1.32; Heart:blood ([2]; 5 min post injection, 5 min): 1.36; Brain:blood ([2]; 30 min post injection, 30 min): 0.26; Heart:blood ([2]; 30 min post injection, 30 min): 0.55
CCC[SH]1c2ccccc2[N]2CC[N]3C(=O)C(C)(C)[S][Tc]321=[O] (stereo not shown) [Example T717, ^99m Tc N[2-(((2-methyl-2-mercapto)propionyl)amino)ethyl]-2-propylthioaniline]	1.27	1.21	0.98	1.88	1.24	1.23	0.48	1.00	Electrophoresis (charge) [1, 7]: neutral
CCOC(=O)[C@H](CS)NCCN[C@@H](CS)C(=O)OCC [ECD]									brain retention [4]: retention; brain uptake [4]: good
CC1(C)C(=O)[N]2CC[N]3c4ccccc4[S][Tc]23(=[O])[SH]1CCCN (stereo not shown) [Example T728, ^99m Tc complex of N[2-(((2-methyl-2-(3-aminopropylthio))propionyl)amino)ethyl]-2-(4-methoxybenzylthio) aniline]	0.03	0.04	1.68	4.36	0.03	0.05	0.74	2.11	
CC[SH]1C(C)(C)C(=O)[N]2CC[N]3c4ccccc4[S][Tc]231=[O] (stereo not shown) [Example T715, ^99m Tc complex of N[2-(((2-methyl-2-ethylthio)propionyl)amino)ethyl]-2-amino-thioplhenol]	2.55	5.19	0.84	3.73	0.51	1.36	0.23	1.40	
C[SH]1c2ccccc2[N]2CC[N]3C(=O)C(C)(C)[S][Tc]321=[O] (stereo not shown) [Example T712, ^99m Tc complex of N[2-(((methyl-2-mercapto)propionyl)amino)ethyl]-2-methylthio aniline]	1.69	1.04	0.61	1.07	1.73	1.13	0.53	0.74	Electrophoresis (charge) ([1]; 0.05M NaH2PO4, pH 4.5, 3000 volts, 30 min): neutral
C=CC[SH]1C(C)(C)C(=O)[N]2CC[N]3c4ccccc4[S][Tc]231=[O] (stereo not shown) [Example T721, ^99m Tc complex of N[2-(((-methyl-2-allylthio)propionyl)amino)ethyl]-2-aminothiopenol]	1.82		0.75		0.30		0.36		Electrophoresis (charge) [1, 7]: neutral; Brain:blood ([2]; 5 min post injection, 5 min): 1.23; Heart:blood ([2]; 5 min post injection, 5 min): 1.16; Brain:blood ([2]; 30 min post injection, 30 min): 0.21; Heart:blood ([2]; 30 min post injection, 30 min): 0.49
C[SH]1C(C)(C)C(=O)[N]2CC[N]3c4ccccc4[S][Tc]231=[O] (stereo not shown) [Example T711]	2.33	4.24	0.88	3.38	0.47	1.54	0.23	1.51	Electrophoresis (charge) [1, 5]: neutral

From patent US5690904A, “Diagnostic radiopharmaceutical compounds (That)” (priority 1995, dated 1997)
